{"source": "patent US5432165A", "about": "“Methods for the treatment of infection caused by Hepatitis B virus (HBV)” (priority 1992, dated 1995)", "key": {"[1]": {"conditions": "month long TID dosing of FIAC; cited from earlier work"}, "[2]": {"assay": "Peak and trough plasma levels of FIAU and FAU by HPLC", "type": "in vivo, human", "conditions": "for concentration at 24 h: FIAU trough plasma concentration", "excerpt": "Additionally at Baseline, archive plasma samples were taken."}, "hepatitis B virus": {"tested_on": "hepatitis B virus", "assay": "Oral FIAU in immune-competent patients with chronic hepatitis B: HBV DNA and HBV DNA polymerase", "type": "in vivo, human", "conditions": "for Number HBeAg-negative at latest follow-up: 6 patients with 1 month follow-up", "protocol": "To assess the antiviral activity of FIAU against hepatitis B virus, up to 24 patients with chronic hepatitis B will be treated with oral FIAU in doses of 0.05, 0.10, 0.25 or 0.50 mg/kg-day in three divided doses daily for four weeks. Six patients, of which only three can be previous interferon failures, will be initially dosed at 0.10 mg/kg-day. Depending on tolerance and efficacy, the next six patients will be entered at 0.05 or 0.25 mg/kg-day.\nThis study is an open and uncontrolled evaluation of oral FIAU in the treatment of chronic hepatitis B. Up to four dose cohorts of six patients each will be sequentially studied starting at 0.10 mg/kg-day. Patients will take the medication three times per day for four weeks. Depending on efficacy and tolerance, the next dose cohort will be either 0.05 or 0.25 mg/kg-day.\nPatients who meet the eligibility criteria will start on therapy, generally as outpatients one to two weeks after the in-hospital evaluation. Up to four doses will be sequentially evaluated. The initial six patients will receive 0.10 mg/kg-day for four weeks.\nIf tolerance is adequate at 0.10 mg/kg-day, six patients will receive 0.25 mg/kg-day for four weeks. The final six patients will receive 0.50 mg/kg-day for four weeks if needed for better efficacy and if tolerance has been adequate at the lower doses.\nThe FIAU will be administered by mouth in three equally divided doses daily. FIAU is provided as a 1 mg/ml syrup. Patients will be instructed on how to measure and self-administer the FIAU solution using oral dosing syringes. Dosing compliance will be monitored by measuring the residual FIAU solution returned at the weekly outpatient visit.\nActivity of FIAU against hepatitis B virus will be assessed by monitoring levels of HBV DNA. An inhibition of HBV DNA activity of at least about 50% by the fourth week of treatment will be considered significant antiviral activity. The dose levels of FIAU will be compared based upon the degree of inhibition of serum levels of HBV DNA."}, "CMV": {"tested_on": "CMV", "conditions": "read-out: in vitro ED90; cited from earlier work"}, "[3]": {"conditions": "human, in vivo, po, 1 mg/kg/day, 24 h"}, "[4]": {"conditions": "0.1 mpk, Day 1 (initial level), individual patients 1A-6A"}, "[5]": {"conditions": "0.1 mpk, Day 3, individual patients 1A-6A"}, "[6]": {"conditions": "0.1 mpk, Day 8, individual patients 1A-6A"}, "[7]": {"conditions": "0.1 mpk, Week 2, individual patients 1A-6A"}, "[8]": {"conditions": "0.1 mpk, Week 3, individual patients 1A-6A"}, "[9]": {"conditions": "0.1 mpk, Week 4, individual patients 1A-6A"}, "[10]": {"conditions": "0.1 mpk, Week 5 (after 4-week treatment), individual patients 1A-6A"}, "[11]": {"conditions": "0.25 mpk, Day 1 (initial level), individual patients 1B-6B"}, "[12]": {"conditions": "0.25 mpk, Day 3, individual patients 1B-6B"}, "[13]": {"conditions": "0.25 mpk, Day 8, individual patients 1B-6B"}, "[14]": {"conditions": "0.25 mpk, Week 2, individual patients 1B-6B"}}, "note": "Several values for one entry are separate records, joined by “and”; a condition that tells them apart may be missing. Equal entries are not always repeated. Entries after “also recorded” stand apart in the source; their conditions may differ.", "data": [{"compound": "O=c1[nH]c(=O)n([C@@H]2O[C@H](CO)[C@@H](O)[C@@H]2F)cc1I", "note": "[FIAU, 1-(2'-deoxy-2'-fluoro-β-D-arabinofuranosyl)-5-iodouracil]", "values": [{"measurement": "accumulation in the plasma", "setting": "[1]", "result": "neither FIAC, FIAU, or their metabolites accumulated in the plasma"}, {"measurement": "FIAU peak plasma concentration, range maximum", "setting": "[2]; 1.0 mg/kg-day, steady state, Days 3-14", "result": 1.66, "unit": "µg/mL"}, {"measurement": "accumulation in the plasma with continued dosing", "setting": "[2]; FIAU 1.0 mg/kg-day, 14 days", "result": "Neither FIAU nor FAU tended to accumulate; also recorded: Neither compound tended to accumulate"}, {"measurement": "FIAU trough plasma value, typical", "setting": "[2]; human, in vivo, po, 1 mg/kg/day", "result": "under 0.2 μg/ml"}, {"measurement": "FIAU peak plasma concentration, mean", "setting": "[2]; [3]", "result": 0.58, "unit": "µg/mL"}, {"measurement": "FIAU trough plasma concentration, mean", "setting": "[2]; [3]", "result": 0.05, "unit": "µg/mL"}, {"measurement": "Cmax at 24 h", "setting": "[2]; human, in vivo, po, 1 mg/kg/day, FIAU peak plasma concentration, mean", "result": 580, "unit": "ng/mL"}, {"measurement": "Cmax at 2 h", "setting": "[2]; human, in vivo, po, 1 mg/kg/day, FIAU peak plasma value at steady state, average", "result": "~1000", "unit": "ng/mL"}, {"measurement": "concentration at 24 h", "setting": "[2]; human, in vivo, po, 1 mg/kg/day, mean", "result": 50, "unit": "ng/mL"}, {"measurement": "concentration at 24 h", "setting": "[2]; human, in vivo, po, 1 mg/kg/day, range maximum", "result": 130, "unit": "ng/mL"}, {"measurement": "mean reduction of HBV DNA serum level from initial levels at Week 4", "setting": "hepatitis B virus; 0.05 mpk", "result": 30, "unit": "%"}, {"measurement": "Number HBeAg-negative at latest follow-up", "setting": "hepatitis B virus; 0.05 mpk", "result": 0}, {"measurement": "HBV DNA Polymerase (cpm)", "setting": "hepatitis B virus; 0.05 mpk, Day 1 (initial level), individual patients 1C, 2C", "result": "1,318 cpm and 3,365 cpm"}, {"measurement": "HBV DNA Polymerase (cpm)", "setting": "hepatitis B virus; 0.05 mpk, Day 3, individual patients 1C, 2C", "result": "748 cpm and 1,509 cpm"}, {"measurement": "HBV DNA Polymerase (cpm)", "setting": "hepatitis B virus; 0.05 mpk, Day 8, individual patients 1C, 2C", "result": "348 cpm and 908 cpm"}, {"measurement": "Mean % change of HBV DNA at Week 4 of FIAU", "setting": "hepatitis B virus; 0.05 mpk, n = 4", "result": -31, "unit": "%"}, {"measurement": "mean reduction of HBV DNA serum level from initial levels at Week 4", "setting": "hepatitis B virus; 0.1 mpk", "result": 88, "unit": "%"}, {"measurement": "Number HBeAg-negative at latest follow-up", "setting": "hepatitis B virus; 0.1 mpk", "result": 0}, {"measurement": "HBV DNA", "setting": "hepatitis B virus; [4]", "result": "68.1 pg/mL and 306.2 pg/mL and 307.7 pg/mL and 18.1 pg/mL and 71.3 pg/mL and 172.6 pg/mL"}, {"measurement": "HBV DNA Polymerase (cpm)", "setting": "hepatitis B virus; [4]", "result": "1208 cpm and 3340 cpm and 3,000 cpm and 1,500 cpm and 1,174 cpm"}, {"measurement": "HBV DNA", "setting": "hepatitis B virus; [5]", "result": "23.2 pg/mL and 110.6 pg/mL and 208.7 pg/mL and 12.3 pg/mL and 27.8 pg/mL and 75.6 pg/mL"}, {"measurement": "HBV DNA Polymerase (cpm)", "setting": "hepatitis B virus; [5]", "result": "348 cpm and 721 cpm and 1,550 cpm and 440 cpm and 251 cpm and 610 cpm"}, {"measurement": "HBV DNA", "setting": "hepatitis B virus; [6]", "result": "16.8 pg/mL and 100.1 pg/mL and 178.8 pg/mL and 8.8 pg/mL and 9.7 pg/mL and 27.6 pg/mL"}, {"measurement": "HBV DNA Polymerase (cpm)", "setting": "hepatitis B virus; [6]", "result": "119 cpm and 550 cpm and 843 cpm and 164 cpm and 145 cpm and 169 cpm"}, {"measurement": "HBV DNA", "setting": "hepatitis B virus; 0.1 mpk, Month 1 (follow-up), individual patients 1A-6A", "result": "4.3 pg/mL and 4.8 pg/mL and 34.2 pg/mL and 4.4 pg/mL and 18.6 pg/mL and 138.5 pg/mL"}, {"measurement": "HBV DNA", "setting": "hepatitis B virus; 0.1 mpk, Month 2 (follow-up), individual patients 1A-6A", "result": "13.8 pg/mL and 11.7 pg/mL and 58.4 pg/mL and 5.9 pg/mL and 26.1 pg/mL and 172.9 pg/mL"}, {"measurement": "HBV DNA", "setting": "hepatitis B virus; [7]", "result": "9.3 pg/mL and 94.5 pg/mL and 223.2 pg/mL and 7.3 pg/mL and 17.9 pg/mL and 25.2 pg/mL"}, {"measurement": "HBV DNA Polymerase (cpm)", "setting": "hepatitis B virus; [7]", "result": "90 cpm and 507 cpm and 977 cpm and 118 cpm and 136 cpm and 142 cpm"}, {"measurement": "HBV DNA", "setting": "hepatitis B virus; [8]", "result": "6.4 pg/mL and 42.2 pg/mL and 122.1 pg/mL and 3.2 pg/mL and 9.0 pg/mL and 22.8 pg/mL"}, {"measurement": "HBV DNA Polymerase (cpm)", "setting": "hepatitis B virus; [8]", "result": "144 cpm and 360 cpm and 303 cpm and 69 cpm and 86 cpm and 148 cpm"}, {"measurement": "HBV DNA", "setting": "hepatitis B virus; [9]", "result": "0.0 pg/mL and 31.4 pg/mL and 78.3 pg/mL and 2.5 pg/mL and 7.4 pg/mL and 21.8 pg/mL"}, {"measurement": "HBV DNA Polymerase (cpm)", "setting": "hepatitis B virus; [9]", "result": "93 cpm and 205 cpm and 310 cpm and 74 cpm and 99 cpm and 165 cpm"}, {"measurement": "HBV DNA", "setting": "hepatitis B virus; [10]", "result": "4.1 pg/mL and 42.4 pg/mL and 76.1 pg/mL and 8.7 pg/mL and 21.9 pg/mL and 67.9 pg/mL"}, {"measurement": "HBV DNA Polymerase (cpm)", "setting": "hepatitis B virus; [10]", "result": "84 cpm and 368 cpm and 657 cpm and 169 cpm and 127 cpm and 324 cpm"}, {"measurement": "Mean % change of HBV DNA at Week 4 of FIAU", "setting": "hepatitis B virus; 0.1 mpk, n = 6", "result": -88, "unit": "%"}, {"measurement": "mean reduction of HBV DNA serum level from initial levels at Week 4", "setting": "hepatitis B virus; 0.25 mpk", "result": 84, "unit": "%"}, {"measurement": "patients who \"sero-converted\" (failed to exhibit hepatitis B surface antigen)", "setting": "hepatitis B virus; 0.25 mpk", "result": "2 of 6"}, {"measurement": "Number HBeAg-negative at latest follow-up", "setting": "hepatitis B virus; 0.25 mpk", "result": 2}, {"measurement": "HBV DNA", "setting": "hepatitis B virus; [11]", "result": "975.8 pg/mL and 63.9 pg/mL and 799.1 pg/mL and 196.3 pg/mL and 110.3 pg/mL and 141.1 pg/mL"}, {"measurement": "HBV DNA Polymerase (cpm)", "setting": "hepatitis B virus; [11]", "result": "43,752 cpm and 835 cpm and 10,833 cpm and 2,752 cpm and 2,454 cpm and 7,422 cpm"}, {"measurement": "HBV DNA", "setting": "hepatitis B virus; [12]", "result": "742.7 pg/mL and 23 pg/mL and 472.3 pg/mL and 103.5 pg/mL and 40.4 pg/mL and 79.9 pg/mL"}, {"measurement": "HBV DNA Polymerase (cpm)", "setting": "hepatitis B virus; [12]", "result": "7,841 cpm and 182 cpm and 2,115 cpm and 1,302 cpm and 506 cpm and 1,482 cpm"}, {"measurement": "HBV DNA", "setting": "hepatitis B virus; [13]", "result": "718.9 pg/mL and 17.5 pg/mL and 204.2 pg/mL and 47.1 pg/mL and 15.9 pg/mL and 60.7 pg/mL"}, {"measurement": "HBV DNA Polymerase (cpm)", "setting": "hepatitis B virus; [13]", "result": "5,129 cpm and 81 cpm and 1,481 cpm and 213 cpm and 131 cpm and 772 cpm"}, {"measurement": "HBV DNA", "setting": "hepatitis B virus; 0.25 mpk, Month 1 (follow-up), individual patients 1B-6B", "result": "4.9 pg/mL and 23.4 pg/mL and 100.6 pg/mL and 242.5 pg/mL and 2.7 pg/mL"}, {"measurement": "HBV DNA", "setting": "hepatitis B virus; [14]", "result": "492.9 pg/mL and 8.0 pg/mL and 182.6 pg/mL and 32.4 pg/mL and 9.3 pg/mL and 26.6 pg/mL"}, {"measurement": "HBV DNA Polymerase (cpm)", "setting": "hepatitis B virus; [14]", "result": "3,395 cpm and 129 cpm and 2,752 cpm and 105 cpm and 45 cpm and 260 cpm"}, {"measurement": "HBV DNA Polymerase (cpm)", "setting": "hepatitis B virus; 0.25 mpk, Week 3, individual patients 1B-3B", "result": "2,012 cpm and 63 cpm and 1,602 cpm"}, {"measurement": "HBV DNA", "setting": "hepatitis B virus; 0.25 mpk, Week 3, individual patients 1B-6B", "result": "373.2 pg/mL and 10.6 pg/mL and 68.3 pg/mL and 31.1 pg/mL and 8.3 pg/mL and 44.2 pg/mL"}, {"measurement": "HBV DNA Polymerase (cpm)", "setting": "hepatitis B virus; 0.25 mpk, Week 4, individual patients 1B-3B", "result": "834 cpm and 42 cpm and 1,076 cpm"}, {"measurement": "HBV DNA", "setting": "hepatitis B virus; 0.25 mpk, Week 4, individual patients 1B-6B", "result": "237.9 pg/mL and 7.2 pg/mL and 69.6 pg/mL and 34.0 pg/mL and 7.9 pg/mL and 41.7 pg/mL"}, {"measurement": "HBV DNA", "setting": "hepatitis B virus; 0.25 mpk, Week 5 (after 4-week treatment), individual patients 1B-6B", "result": "376.3 pg/mL and 24.1 pg/mL and 6.4 pg/mL and 89.9 pg/mL and 6.8 pg/mL"}, {"measurement": "Mean % change of HBV DNA at Week 4 of FIAU", "setting": "hepatitis B virus; 0.25 mpk, n = 6", "result": -84, "unit": "%"}, {"measurement": "reduction of the initial HBV DNA polymerase level", "setting": "hepatitis B virus; within the first few days, FIG. 20", "result": "80-90%"}, {"measurement": "EC90", "setting": "CMV", "result": "~500", "unit": "nM"}]}]}
